Experiment [1] has as its target T1, PRMT5 (Homo sapiens, UniProt O14744).
T1 construct: purchased Viva (custom protein)
Briefly: PRMT5 IC50 assay in the presence of SAM as cofactor. Type of experiment: biochemical. In outline:
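Human PRMT5 inhibition, IC50 in μM; cofactor varied (SAM / MTA / none).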

Experiment [2] has as its target T1, PRMT5. Briefly: PRMT5 IC50 assay in the presence of MTA as cofactor. Type of experiment: biochemical. The note with it: for IC50: PRMT5, MTA as cofactor; for SAM/MTA Ratio: ratio between Ki in the presence of SAM and Ki in the presence of MTA. The essentials: (§1)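 Each compound is tested on PRMT5 in the presence of SAM, of MTA, and without any cofactor. Ki values are then back-calculated using fixed factors of 1.5 (SAM) and 13.5 (MTA), and the two Ki values are compared as a ratio.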

Another experiment concerns HAP1 MTAP-intact. Briefly: SDMA in-cell western assay, HAP1 MTAP-intact cell line. Format: cell-based. The note with it: Homo sapiens. In outline: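 Cells from two matched HAP1 lines, MTAP-null and MTAP-expressing at endogenous levels, are treated with compound. SDMA is then quantified by in-cell western and an IC50 is calculated for each line.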
The test system of the next experiment is HAP1 MTAP-deleted. Briefly: SDMA in-cell western assay, HAP1 MTAP-deleted cell line. The note with it: for IC50: Homo sapiens, HAP1 MTAP-deleted cell line; for MTAP Intact/Deleted Ratio: IC50 ratio HAP1 MTAP-intact / HAP1 MTAP-deleted. Type of experiment: cell-based. In outline: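 MTAP-null HAP1 cells, the deleted member of an isogenic pair with endogenously MTAP-expressing HAP1, are treated with compound. SDMA is then quantified by in-cell western and an IC50 is calculated.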

In experiment [3] the target is T1, PRMT5. Briefly: PRMT5 IC50 assay with no cofactor. Type of experiment: biochemical. The note with it: read-out: No Co-factor IC50. In outline:
as §1

T1 sequence (O14744 whole entry): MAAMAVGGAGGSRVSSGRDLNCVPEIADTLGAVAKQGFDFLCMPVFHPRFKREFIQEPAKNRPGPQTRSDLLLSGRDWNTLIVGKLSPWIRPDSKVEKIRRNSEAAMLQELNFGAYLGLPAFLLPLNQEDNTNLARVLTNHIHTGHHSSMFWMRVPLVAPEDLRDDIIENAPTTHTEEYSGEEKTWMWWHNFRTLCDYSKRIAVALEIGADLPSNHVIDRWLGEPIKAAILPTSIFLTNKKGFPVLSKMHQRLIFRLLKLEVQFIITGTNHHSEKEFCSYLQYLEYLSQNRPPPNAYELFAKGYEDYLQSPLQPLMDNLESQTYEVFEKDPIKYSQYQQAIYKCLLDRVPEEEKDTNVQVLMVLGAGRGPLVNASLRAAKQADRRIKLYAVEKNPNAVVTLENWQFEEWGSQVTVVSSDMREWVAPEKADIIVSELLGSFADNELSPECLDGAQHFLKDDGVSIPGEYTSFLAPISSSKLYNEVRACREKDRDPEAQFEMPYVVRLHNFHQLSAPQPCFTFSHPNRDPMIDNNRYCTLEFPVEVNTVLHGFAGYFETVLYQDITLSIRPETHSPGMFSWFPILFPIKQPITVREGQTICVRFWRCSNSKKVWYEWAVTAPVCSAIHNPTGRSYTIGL
T1 sequence (Q9BQA1 whole entry partner): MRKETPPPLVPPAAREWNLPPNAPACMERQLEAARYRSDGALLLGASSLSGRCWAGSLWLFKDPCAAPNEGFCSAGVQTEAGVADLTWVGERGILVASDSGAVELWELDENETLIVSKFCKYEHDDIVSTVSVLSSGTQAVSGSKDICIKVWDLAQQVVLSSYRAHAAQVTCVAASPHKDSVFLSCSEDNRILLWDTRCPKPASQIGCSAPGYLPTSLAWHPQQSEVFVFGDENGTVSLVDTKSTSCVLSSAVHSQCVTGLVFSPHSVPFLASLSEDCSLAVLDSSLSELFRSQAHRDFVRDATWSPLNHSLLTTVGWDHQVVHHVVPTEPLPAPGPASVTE

What is called IC50 is the concentration that inhibits the measured activity by half. For `O=C(NC[C@H](O)CN1CCc2c(ccc(OCc3cnco3)c2Cl)C1)c1cc(NC2CCC2)ncc1F` [Compound 340, (S)—N-(3-(5-chloro-6-(oxazol-5-ylmethoxy)-3N-dihydroisoquinolin-2(1H)-yl)-2-hydroxypropyl)-2-(cyclobutylamino)-5-fluoroisonicotinamide], the half-maximal inhibitory concentration (IC50) is 500 to 5000 nM at PRMT5 [1]; 50 to 500 nM on PRMT5 [2]; at least 10 µM with HAP1 MTAP-intact; at least 10 µM with HAP1 MTAP-deleted; at least 5 µM at PRMT5 [3]. Further, the “SAM/MTA Ratio” value on PRMT5 [2] was “A (a Ki ratio greater than or equal to 10 fold between the Ki in the presence of SAM and the Ki in the presence of MTA)”. Also, the “MTAP Intact/Deleted Ratio” value in the experiment with HAP1 MTAP-deleted was “C* (an IC50 ratio of less than 3 fold between the IC50 in the HAP1 MTAP-intact cell line and the HAP1 MTAP-deleted cell line)”.
As to `Cc1c(OCc2cnco2)cc(F)c2c1CCN(C[C@@H](O)CNC(=O)c1ccnc(NC3CCC3)c1)C2` [Compound 341, 2-(cyclobutylamino)-N-[(2S)-3-[8-fluoro-5-methyl-6-(oxazol-5-ylmethoxy)-3,4-dihydro-1H-isoquinolin-2-yl]-2-hydroxy-propyl]pyridine-4-carboxamide], the IC50 on PRMT5 [1] was 50 to 500 nM; at PRMT5 [2], 50 to 500 nM; in the experiment with HAP1 MTAP-intact it was at least 10 µM; in the experiment with HAP1 MTAP-deleted, 1 to 10 µM; on PRMT5 [3], 0.5 to 5 µM. The “SAM/MTA Ratio” value on PRMT5 [2] was “A (a Ki ratio greater than or equal to 10 fold between the Ki in the presence of SAM and the Ki in the presence of MTA)”. Moreover, the “MTAP Intact/Deleted Ratio” value in the experiment on HAP1 MTAP-deleted is “B* (an IC50 ratio greater than or equal to 3 fold but lower than 10 fold between the IC50 in the HAP1 MTAP-intact cell line and the HAP1 MTAP-deleted cell line)”.
As to `CC(=O)N1CC(Nc2cc(C(=O)NC[C@H](O)CN3CCc4c(ccc(OCc5cnco5)c4Cl)C3)nc(C(C)C)n2)C1` [Compound 342, (S)-6-((1-acetylazetidin-3-yl)amino)-N-(3-(5-chloro-6-(oxazol-5-ylmethoxy)-3,4-dihydroisoquinolin-2(1H)-yl)-2-hydroxypropyl)-2-isopropylpyrimidine-4-carboxamide], the IC50 was 50 to 500 nM on PRMT5 [1]; 50 to 500 nM at PRMT5 [2]; at least 10 µM with HAP1 MTAP-intact; under 1 µM in the experiment with HAP1 MTAP-deleted; 0.5 to 5 µM on PRMT5 [3]. The “SAM/MTA Ratio” value on PRMT5 [2] is “A (a Ki ratio greater than or equal to 10 fold between the Ki in the presence of SAM and the Ki in the presence of MTA)”. The “MTAP Intact/Deleted Ratio” value in the experiment with HAP1 MTAP-deleted is “A* (an IC50 ratio greater than or equal to 10 fold between the IC50 in the HAP1 MTAP-intact cell line and the HAP1 MTAP-deleted cell line)”.
For the compound `CC(=O)N1CCC(Nc2cc(C(=O)NC[C@H](O)CN3CCc4c(ccc(OCc5cnn[nH]5)c4Cl)C3)ncn2)CC1` [Compound 343, 6-[(1-acetyl-4-piperidyl)amino]-N-[(2S)-3-[5-chloro-6-(1H-triazol-5-ylmethoxy)-3,4-dihydro-1H-isoquinolin-2-yl]-2-hydroxy-propyl]pyrimidine-4-carboxamide], the IC50 at PRMT5 [1] is 500 to 5000 nM; at PRMT5 [2], 500 to 5000 nM; with HAP1 MTAP-intact it was at least 10 µM; in the experiment on HAP1 MTAP-deleted, 1 to 10 µM; on PRMT5 [3] it was at least 5 µM. On PRMT5 [2], the “SAM/MTA Ratio” value is “A (a Ki ratio greater than or equal to 10 fold between the Ki in the presence of SAM and the Ki in the presence of MTA)”. Moreover, the “MTAP Intact/Deleted Ratio” value in the experiment with HAP1 MTAP-deleted is “C* (an IC50 ratio of less than 3 fold between the IC50 in the HAP1 MTAP-intact cell line and the HAP1 MTAP-deleted cell line)”.
Consider `Cc1ncoc1COc1ccc2c(c1Cl)CCN(C[C@@H](O)CNC(=O)c1cccc(NC3CCC3)c1)C2` [Compound 344, N-[(2S)-3-{5-chloro-6-[(4-methyl-1,3-oxazol-5-yl)methoxy]-1,2,3,4-tetrahydroisoquinolin-2-yl}-2-hydroxypropyl]-3-(cyclobutylamino)benzamide], for which the IC50 on PRMT5 [1] is 50 to 500 nM; on PRMT5 [2], 50 to 500 nM; in the experiment on HAP1 MTAP-intact, at least 10 µM; with HAP1 MTAP-deleted, at least 10 µM; at PRMT5 [3] it was at least 5 µM. Also, the “SAM/MTA Ratio” value at PRMT5 [2] was “A (a Ki ratio greater than or equal to 10 fold between the Ki in the presence of SAM and the Ki in the presence of MTA)”. For the same compound, the “MTAP Intact/Deleted Ratio” value in the experiment with HAP1 MTAP-deleted was “C* (an IC50 ratio of less than 3 fold between the IC50 in the HAP1 MTAP-intact cell line and the HAP1 MTAP-deleted cell line)”.
On to `COCCN(C)c1cc(C(=O)NC[C@H](O)CN2CCc3c(ccc(OCc4cnco4)c3Cl)C2)cc(NC2CCC2)n1` [Compound 345], for which the IC50 on PRMT5 [1] was 50 to 500 nM; at PRMT5 [2], 50 to 500 nM; in the experiment with HAP1 MTAP-intact, at least 10 µM; in the experiment with HAP1 MTAP-deleted, 1 to 10 µM; on PRMT5 [3], at least 5 µM. For the same compound, on PRMT5 [2], the “SAM/MTA Ratio” value is “A (a Ki ratio greater than or equal to 10 fold between the Ki in the presence of SAM and the Ki in the presence of MTA)”. Besides, the “MTAP Intact/Deleted Ratio” value with HAP1 MTAP-deleted is “B* (an IC50 ratio greater than or equal to 3 fold but lower than 10 fold between the IC50 in the HAP1 MTAP-intact cell line and the HAP1 MTAP-deleted cell line)”.
Turning to `Cc1ncoc1COc1ccc2c(c1Br)CCN(C[C@@H](O)CNC(=O)c1ccnc(NC3CCCCC3)c1)C2` [Compound 346, (S)—N-(3-(5-bromo-6-((4-methyloxazol-5-yl)methoxy)-3N-dihydroisoquinolin-2(1H)-yl)-2-hydroxypropyl)-2-(cyclohexylamino)isonicotinamide], the IC50 on PRMT5 [1] was 500 to 5000 nM; on PRMT5 [2] it was 50 to 500 nM; with HAP1 MTAP-intact, at least 10 µM; with HAP1 MTAP-deleted, at least 10 µM; on PRMT5 [3], at least 5 µM. In addition, the “SAM/MTA Ratio” value at PRMT5 [2] is “A (a Ki ratio greater than or equal to 10 fold between the Ki in the presence of SAM and the Ki in the presence of MTA)”. The “MTAP Intact/Deleted Ratio” value in the experiment on HAP1 MTAP-deleted was “C* (an IC50 ratio of less than 3 fold between the IC50 in the HAP1 MTAP-intact cell line and the HAP1 MTAP-deleted cell line)”.
For `O=C(NC[C@H](O)CN1CCc2c(ccc(OCc3cnco3)c2Cl)C1)c1ccnc(NC2CCCC(F)(F)C2)c1` (stereo partly drawn) [Compound 347], the IC50 at PRMT5 [1] was 50 to 500 nM; on PRMT5 [2] it was 50 to 500 nM; in the experiment with HAP1 MTAP-intact it was at least 10 µM; in the experiment on HAP1 MTAP-deleted it was at least 10 µM; at PRMT5 [3], at least 5 µM. Also, the “SAM/MTA Ratio” value at PRMT5 [2] was “A (a Ki ratio greater than or equal to 10 fold between the Ki in the presence of SAM and the Ki in the presence of MTA)”. The “MTAP Intact/Deleted Ratio” value in the experiment on HAP1 MTAP-deleted was “C* (an IC50 ratio of less than 3 fold between the IC50 in the HAP1 MTAP-intact cell line and the HAP1 MTAP-deleted cell line)”.
For the compound `O=C(NC[C@H](O)CN1CCc2c(ccc(OCc3cnco3)c2Br)C1)c1cccc(NC2CCC2)c1` [Compound 348, (S)—N-(3-(5-bromo-6-(oxazol-5-ylmethoxy)-3,4-dihydroisoquinolin-2(1H)-yl)-2-hydroxypropyl)-3-(cyclobutylamino)benzamide], the IC50 is 500 to 5000 nM on PRMT5 [1]; 500 to 5000 nM at PRMT5 [2]; at least 10 µM in the experiment with HAP1 MTAP-intact; at least 10 µM with HAP1 MTAP-deleted; at least 5 µM at PRMT5 [3]. Moreover, the “SAM/MTA Ratio” value at PRMT5 [2] is “A (a Ki ratio greater than or equal to 10 fold between the Ki in the presence of SAM and the Ki in the presence of MTA)”. In addition, the “MTAP Intact/Deleted Ratio” value in the experiment with HAP1 MTAP-deleted is “C* (an IC50 ratio of less than 3 fold between the IC50 in the HAP1 MTAP-intact cell line and the HAP1 MTAP-deleted cell line)”.

The record behind these values is patent US11986471B2, “Compounds and methods of use” (Tango Therapeutics, Inc., priority 2018, dated 2024).
